This experiment deals with BRD4 (Homo sapiens, UniProt O60885). The experiment in a line: Time resolved fluorescence resonance energy transfer (TR-FRET) binding assay, bromodomain BRD4. Particulars: one of the FRET assays described; read-out: FRET BRD4 IC50.

Molecules are shown by their SMILES.

As usually defined, the IC50 is the concentration that inhibits the measured activity by half. `[2H]C([2H])([2H])c1nnn(C)c1-c1cnc2c3cnc(Cl)cc3n(C(c3ncccc3F)C3CCOCC3)c2c1` (single isomer, unassigned) [Example 320]: the IC50 was less than 1500 nM.
Then `[2H]C([2H])([2H])c1nnn(C)c1-c1cnc2c3c(OCC)ncc(S(C)(=O)=O)c3n(C(c3ncccc3F)C3CCOCC3)c2c1` (stereo not shown) [Example 69, 13-Ethoxy-8-[(3-fluoropyridin-2-yl)(oxan-4-yl)methyl]-10-methanesulfonyl-5-[4-(^2H3)methyl-1-methyl-1H-1,2,3-triazol-5-yl]-3,8,12-triazatricyclo[7.4.0.0^2,^7]trideca-1(13),2(7),3,5,9,11-hexaene], with less than 1500 nM; and `COc1nccc2c3ncc(-c4c(C)nnn4C)cc3n([C@H](c3ccccc3)C3CCOCC3)c12` [Example 13, 5-(Dimethyl-1H-1,2,3-triazol-5-yl)-10-methoxy-8-[(S)-oxan-4-yl(phenyl)methyl]-3,8,11-triazatricyclo[7.4.0.0^2,^7]trideca-1(13),2(7),3,5,9,11-hexaene], with less than 1 nM.
Then `[2H]C([2H])([2H])N1CCN(c2ccc3c4ncc(-c5c(C)nnn5C)cc4n([C@H](c4ccccc4F)C4CCOCC4)c3n2)CC1` [Example 250, 5-(Dimethyl-1H-1,2,3-triazol-5-yl)-8-[(S)-(2-fluorophenyl)(oxan-4-yl)methyl]-11-[4-(^2H3)methylpiperazin-1-yl]-3,8,10-triazatricyclo[7.4.0.0^2,^7]trideca-1(13),2(7),3,5,9,11-hexaene], with less than 10 nM; and `[2H]C([2H])([2H])c1nnn(C)c1-c1cnc2c3ccc(-c4c(C([2H])([2H])[2H])nnn4C)nc3n([C@@H](c3ccccc3)C3CCOCC3)c2c1` [Example 165, 5,11-Bis[4-(^2H3)methyl-1-methyl-1H-1,2,3-triazol-5-yl]-8-[(R)-oxan-4-yl(phenyl)methyl]-3,8,10-triazatricyclo[7.4.0.0^2,^7]trideca-1(9),2(7),3,5,10,12-hexaene], with less than 10 nM.
For the compound `Cc1nnn(C)c1-c1cnc2c3c(S(C)(=O)=O)nccc3n([C@H](c3ccccc3)C3CCOCC3)c2c1` [Example 33, 5-(Dimethyl-1H-1,2,3-triazol-5-yl)-13-methanesulfonyl-8-[(S)-oxan-4-yl(phenyl)methyl]-3,8,12-triazatricyclo[7.4.0.0^2,^7]trideca-1(13),2(7),3,5,9,11-hexaene], the IC50 was less than 1 nM.
Then `Cc1noc(C)c1-c1cnc2c3cnc(C(C)(C)O)cc3n([C@H](c3ccccc3)C3CCOCC3)c2c1` [Example 335], with less than 10 nM; and `[2H]C([2H])([2H])c1nnn(C)c1-c1cnc2c3cnc(C(C)(C)O)c(F)c3n([C@H](c3ccccc3)C3CCOCC3)c2c1` [Example 278, 2-{10-Fluoro-5-[4-(^2H3)methyl-1-methyl-1H-1,2,3-triazol-5-yl]-8-[(S)-oxan-4-yl(phenyl)methyl]-3,8,12-triazatricyclo[7.4.0.0^2,^7]trideca-1(13),2(7),3,5,9,11-hexaen-11-yl}propan-2-ol], with less than 1 nM; and `Cc1nnn(C)c1-c1cnc2c3ccc(S(N)(=O)=O)nc3n([C@H](c3ccccc3)C3CCOCC3)c2c1` [Example 195, 5-(Dimethyl-1H-1,2,3-triazol-5-yl)-8-[(S)-oxan-4-yl(phenyl)methyl]-3,8,10-triazatricyclo[7.4.0.0^2,^7]trideca-1(9),2(7),3,5,10,12-hexaene-11-sulfonamide], with less than 10 nM.
Then `[2H]C([2H])([2H])c1nnn(C)c1-c1cnc2c3c(OCC4CCCO4)ncc(S(C)(=O)=O)c3n([C@H](c3ccccc3)C3CCOCC3)c2c1` (stereo partly drawn) [Example 110, 10-Methanesulfonyl-5-[4-(^2H3)methyl-1-methyl-1H-1,2,3-triazol-5-yl]-8-[(S)-oxan-4-yl(phenyl)methyl]-13-[(2S)-oxolan-2-ylmethoxy]-3,8,12-triazatricyclo[7.4.0.0^2,^7]trideca-1(13),2(7),3,5,9,11-hexaene], with less than 10 nM; and `COc1ncc(C(C)(C)O)c2c1c1ncc(-c3c(C)nnn3C)cc1n2[C@H](c1ccccc1)C1CCOCC1` [Example 142, 2-[5-(Dimethyl-1H-1,2,3-triazol-5-yl)-13-methoxy-8-[(S)-oxan-4-yl(phenyl)methyl]-3,8,12-triazatricyclo[7.4.0.0^2,^7]trideca-1(9),2,4,6,10,12-hexaen-10-yl]propan-2-ol], with less than 10 nM; and `COc1nccc2c3ncc(-c4c(C)nnn4C)cc3n(C(c3cccc(F)c3)C3CCOCC3)c12` (single isomer, unassigned) [Example 20, 5-(Dimethyl-1H-1,2,3-triazol-5-yl)-8-[(3-fluorophenyl)(oxan-4-yl)methyl]-10-methoxy-3,8,11-triazatricyclo[7.4.0.0^2,^7]trideca-1(13),2(7),3,5,9,11-hexaene], with less than 10 nM.
Then `Cc1noc(C)c1-c1cnc2c3c(NS(=O)(=O)C4CC4)ncc(S(C)(=O)=O)c3n([C@H](c3ccccc3)C3CCOCC3)c2c1` [Example 98, N-[5-(Dimethyl-1,2-oxazol-4-yl)-10-methanesulfonyl-8-[(S)-oxan-4-yl(phenyl)methyl]-3,8,12-triazatricyclo[7.4.0.0^2,^7]trideca-1(13),2(7),3,5,9,11-hexaen-13-yl]cyclopropanesulfonamide], with less than 10 nM; and `Cc1nnn(C)c1-c1cnc2c3ccc(N4CC(C)S(=O)(=O)C(C)C4)nc3n([C@H](c3ccccc3)C3CCOCC3)c2c1` (single isomer, unassigned) [Example 191], with less than 1 nM; and `COc1nccc2c3ncc(-c4c(C)nnn4C)cc3n(C(c3c(F)cccc3F)C3CCOCC3)c12` (racemic) [Example 27, 8-[(2,6-Difluorophenyl)(oxan-4-yl)methyl]-5-(dimethyl-1H-1,2,3-triazol-5-yl)-10-methoxy-3,8,11-triazatricyclo[7.4.0.0^2,^7]trideca-1(13),2(7),3,5,9,11-hexaene], with less than 10 nM.
In the case of `[2H]C(C)(O)c1ccc2c3ncc(-c4c(C)nnn4C)cc3n([C@H](c3ccccc3)C3CCOCC3)c2n1` (stereo partly drawn) [Example 172, 1-[5-(Dimethyl-1H-1,2,3-triazol-5-yl)-8-[(S)-oxan-4-yl(phenyl)methyl]-3,8,10-triazatricyclo[7.4.0.0^2,^7]trideca-1(9),2(7),3,5,10,12-hexaen-11-yl](1-^2H)ethan-1-ol], the IC50 is less than 10 nM.
Consider `[2H]C([2H])([2H])c1nnn(C)c1-c1cnc2c3cnc(S(C)(=O)=O)cc3n([C@H](c3ccccc3F)C3CCOCC3)c2c1` [Example 245, 8-[(S)-(2-Fluorophenyl)(oxan-4-yl)methyl]-11-methanesulfonyl-5-[4-(^2H3)methyl-1-methyl-1H-1,2,3-triazol-5-yl]-3,8,12-triazatricyclo[7.4.0.0^2,^7]trideca-1(13),2(7),3,5,9,11-hexaene], for which the IC50 was less than 10 nM.
Then `[2H]C([2H])([2H])c1nnn(C)c1-c1cnc2c3ccc(C(C)(C)O)nc3n([C@H](c3ccccc3F)C3CCOCC3)c2c1` [Example 241, 2-{8-[(S)-(2-Fluorophenyl)(oxan-4-yl)methyl]-5-[4-(^2H3)methyl-1-methyl-1H-1,2,3-triazol-5-yl]-3,8,10-triazatricyclo[7.4.0.0^2,^7]trideca-1(13),2(7),3,5,9,11-hexaen-11-yl}propan-2-ol], with less than 10 nM; and `[2H]C([2H])([2H])c1nnn(C)c1-c1cnc2c3cnc(C(C)(C)O)cc3n(C(CCC)c3ncccc3F)c2c1` (stereo not shown) [Example 359, 2-{8-[1-(3-Fluoropyridin-2-yl)butyl]-5-[4-(^2H3)methyl-1-methyl-1H-1,2,3-triazol-5-yl]-3,8,12-triazatricyclo[7.4.0.0^2,^7]trideca-1(13),2(7),3,5,9,11-hexaen-11-yl}propan-2-ol], with less than 10 nM.
Then `C=C(C)c1ccc2c3ncc(-c4c(C)nnn4C)cc3n([C@H](c3ccccc3)C3CCOCC3)c2n1` [Example 161, 5-(Dimethyl-1H-1,2,3-triazol-5-yl)-8-[(S)-oxan-4-yl(phenyl)methyl]-11-(prop-1-en-2-yl)-3,8,10-triazatricyclo[7.4.0.0^2,^7]trideca-1(9),2(7),3,5,10,12-hexaene], with less than 10 nM.
Then `[2H]C([2H])([2H])c1nnn(C)c1-c1cnc2c3c(Cl)ncc(F)c3n([C@H](c3ccccc3)C3CCOCC3)c2c1` [Example 280, 13-Chloro-10-fluoro-5-[4-(^2H3)methyl-1-methyl-1H-1,2,3-triazol-5-yl]-8-[(S)-oxan-4-yl(phenyl)methyl]-3,8,12-triazatricyclo[7.4.0.0^2,^7]trideca-1(13),2(7),3,5,9,11-hexaene], with less than 10 nM.
With `[2H]C([2H])([2H])c1nnn(C)c1-c1cnc2c3c(OCC)ncc(S(C)(=O)=O)c3n([C@H](c3ccccc3F)C3CCOCC3)c2c1` [Example 62, 13-Ethoxy-8-[(S)-(2-fluorophenyl)(oxan-4-yl)methyl]-10-methanesulfonyl-5-[4-(^2H3)methyl-1-methyl-1H-1,2,3-triazol-5-yl]-3,8,12-triazatricyclo[7.4.0.0^2,^7]trideca-1(13),2(7),3,5,9,11-hexaene], the IC50 was less than 1 nM.
Then `Cc1nnn(C)c1-c1cnc2c3ccc(N4CCN(C(=O)C5CC5)CC4)nc3n([C@H](c3ccc(F)cc3)C3CCOCC3)c2c1` [Example 258, 11-(4-Cyclopropanecarbonylpiperazin-1-yl)-5-(dimethyl-1H-1,2,3-triazol-5-yl)-8-[(S)-(4-fluorophenyl)(oxan-4-yl)methyl]-3,8,10-triazatricyclo[7.4.0.0^2,^7]trideca-1(13),2(7),3,5,9,11-hexaene], with less than 10 nM; and `COc1nnn(C)c1-c1cnc2c3ccc(Cl)nc3n([C@H](c3ccccc3)C3CCOCC3)c2c1` [Example 167, 11-Chloro-5-(4-methoxy-1-methyl-1H-1,2,3-triazol-5-yl)-8-[(S)-oxan-4-yl(phenyl)methyl]-3,8,10-triazatricyclo[7.4.0.0^2,^7]trideca-1(9),2(7),3,5,10,12-hexaene], with less than 1500 nM.
Turning to `[2H]C([2H])([2H])c1nnn(C)c1-c1cnc2c3ccc(N4CCN(C(C)C)CC4)nc3n([C@H](c3ccccc3)C3CCOCC3)c2c1` [Example 153, 5-[4-(^2H3)Methyl-1-methyl-1H-1,2,3-triazol-5-yl]-8-[(S)-oxan-4-yl(phenyl)methyl]-11-[4-(propan-2-yl)piperazin-1-yl]-3,8,10-triazatricyclo[7.4.0.0^2,^7]trideca-1(9),2(7),3,5,10,12-hexaene], the IC50 was less than 10 nM.

The values above are taken from US9725449B2, “Tricyclic compounds as anticancer agents” (BRISTOL-MYERS SQUIBB COMPANY, priority 2015, dated 2017).
